Test results: patent US20210179591A1, “NEW COMPOUNDS FOR USE AS A THERAPEUTICALLY ACTIVE SUBSTANCE AND IN PARTICULAR FOR USE IN THE TREATMENT OF TUMORS” (ETH ZURICH, priority 2017, published 2021)
pIC50: −log10 of the molar value. Read-outs that look alike come from different tables or passages of the source.

Experiments:
GST-DYRK1B = molecular target: T1, GST-DYRK1B (Homo sapiens, UniProt Q9Y463); assay: IC50 determination of DYRK1B inhibitors (ADP-Glo in vitro kinase assay with DYRKtide); assay type: biochemical; conditions: ATP 100 μM
T1 construct: purchased ThermoFisher
T1 sequence (Q9Y463 whole entry): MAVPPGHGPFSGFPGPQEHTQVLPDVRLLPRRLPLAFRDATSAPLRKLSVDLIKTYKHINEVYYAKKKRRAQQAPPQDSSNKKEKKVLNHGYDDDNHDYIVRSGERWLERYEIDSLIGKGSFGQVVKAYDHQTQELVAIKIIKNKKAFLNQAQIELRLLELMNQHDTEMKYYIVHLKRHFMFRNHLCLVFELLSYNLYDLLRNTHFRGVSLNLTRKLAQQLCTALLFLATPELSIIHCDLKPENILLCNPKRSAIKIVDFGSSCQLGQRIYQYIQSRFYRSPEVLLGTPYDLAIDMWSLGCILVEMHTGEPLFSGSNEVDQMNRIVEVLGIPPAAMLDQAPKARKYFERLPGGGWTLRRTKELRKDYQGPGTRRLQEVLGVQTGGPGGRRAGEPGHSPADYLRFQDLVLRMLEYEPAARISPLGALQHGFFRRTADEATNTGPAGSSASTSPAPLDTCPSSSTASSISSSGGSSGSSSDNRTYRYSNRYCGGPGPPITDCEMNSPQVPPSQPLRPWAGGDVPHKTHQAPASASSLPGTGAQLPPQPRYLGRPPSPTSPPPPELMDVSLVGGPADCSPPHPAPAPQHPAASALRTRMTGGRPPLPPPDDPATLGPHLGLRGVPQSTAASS
Procedure: In a preferred embodiment, the compounds of the present invention show inhibition of DYRK1B and/or DYRK1A to a higher extent than expected by the skilled person. The inhibition may be expressed as IC50, i.e. the concentration necessary to inhibit activity to 50%. […] The IC50 value may be determined using methods such as those described in the examples. As such, a suitable method comprises the steps of incubating GST-DYRK1B (e.g. at 5 nM) and DYRKtide (e.g. at 50 μM) in kinase buffer, following compound dispensing (e.g. 1 μl), e.g. 2 μl of ATP (final concentration e.g. 100 μM) and incubating, preferably at room temperature. After that, a detectable compound such as ADP-Glo™ reagent can be dispensed and incubated, preferably at room temperature. Finally, Kinase Detection Reagent can be dispensed and the solution be incubated before measuring.
Compounds of formula 16, 12, 14, 10 and 19 inhibited DYRK1B (SEQ. ID. NO. 1) kinase activity with an IC50 of 2 μM, 2 μM, 3 μM, 4 μM and 3 μM respectively. Titration curves show average of n=3 independent experiments, average±SD.
GST-DYRK1B (5 nM) and DYRKtide (50 μM) (Lucerna-Chem AG, D96-58) diluted in kinase buffer were dispensed in white 384 well plate (3572, Corning, N.Y., USA) (2 μl/well). Following compound dispensing (1 μl), 2 μl of ATP (final concentration 100 μM) was added and incubated for 30 min at room temperature. After that, 5 μl of ADP-Glo™ reagent was dispensed and incubated for 40 min at room temperature. Finally, 10 ul of Kinase Detection Reagent was dispensed and incubated for 30 min before measuring the plate on a Tecan infinite M1000pro plate reader (Luminescence mode).

HT29 cells = assay: Immunoblot of p27 Ser10 phosphorylation in HT29 cells cultured in hypoxia; assay type: cell-based; conditions: FIG. 5b
Procedure: (§1) Cells were lysed in lysis buffer (50 mM Tris-HCl pH 7.5, 250 mM NaCl, 0.5% NP-40, 5 mM NaCl, 5 mM NaF, 5 mM EDTA, 0.5 mM EGTA). Protein were separated in 10% SDS/PAGE gels, as previously described. Ser^10-p27 (sc-12939-R) (1:500) and DYRK1B (sc-390417) (1:200) antibodies were purchased from Santa-Cruz, γ-TUBULIN (ab11316) (1:5000) from Abcam, p27 (610242) (1:500) from BD Biosciences and V5 (R960-25) from Life Technology.

[1] = test system: HT29-HRE MTS (hypoxic cancer cells); assay: Compound treatment of multicellular tumor spheroids (MTS), SYTOX cell death in the hypoxic core; assay type: cell-based; conditions: FIGS. 4a to 4e
Procedure: DMSO was used as negative control, AZ191 as positive control and staurosporine (STS) as a general cytotoxic control. Whole MTS was visualized by Hoechst staining and cell death by SYTOX staining. Scale bar 200 μm. […] Average±SD of n>10 MTS from 3 biological replicates are shown. […] After 72h hours in culture, 10 μl of a mix of SYTOX Orange (S11368) (1:1000) and Hoechst 33258 (1 μM) diluted in DMEM was added to each well of the ULA plate and incubated overnight before image acquisition. MTS were imaged with a 5× objective on Zeiss observer Z.1 microscope equipped with an automated stage, with Hoechst channel used for autofocusing. For each well, images of Hoechst, YFP and SYTOX channels were acquired in the middle of the MTS. Images were analyzed with a custom ImageJ script. Briefly, Hoechst channel images were used to generate a mask of the MTS, which was then scaled to 1:3 and transferred to the SYTOX channel to measure the pixel intensity in the core area of the MTS. HT29-HRE solution (20,000 cells/ml) was dispensed in ULA plates (250 μl/well) and spun at 700 g for 5 min. After 48 h, MTS were treated with 10 μl of serial dilutions of AZ191, compound of formula 10 DMSO or STS. The next day a mix of Hoechst and SYTOX was added to the wells. MTS were then processed as described above.

DYRK1B = molecular target: T2, DYRK1B (Homo sapiens, UniProt Q9Y463); assay: In vitro kinase assay, immunoblot of p27 Ser10 phosphorylation by recombinant DYRK1B; assay type: biochemical; conditions: recombinant DYRK1B and p27, 100 μM ATP, FIG. 5a
T2 construct: purchased ThermoFisher
T2 sequence (Q9Y463 whole entry): as above
Procedure: as §1
28 ng of GST-DYRK1B (ThermoFisher, NP_004705) and 100 ng of GST-p27 were mixed in 45 μl of kinase buffer (50 mM HEPES (pH 7.5), 1 mM DTT, MgCl2, 0.004% Triton X-100). Serial dilution of AZ191, compound of formula 10 or DMSO were added to the mix and incubated for 5 min at room temperature. 100 μM of ATP was added to start the kinase reaction which was carried out with constant shaking at 30° C. for 30 min. The reaction was terminated by addition of Laemmli buffer and boiled 5 min at 95° C. Finally, the proteins were separated by SDS page and detected by immunoblotting.

[2] = IC50 values for selected examples, GST-DYRK1B 5 nM, DYRKtide 50 μM, read-out: IC50
[3] = average of n=3 independent experiments, read-out: IC50 of DYRK1B kinase activity inhibition (ADP-Glo titration curve)

Molecule `COc1ccccc1-n1cc(-c2ccnc(NCc3cnc(C)cn3)n2)cn1` [4-[1-(2-methoxyphenyl)-1H-pyrazol-4-yl]-N-[(5-methyl-2-pyrazinyl)methyl]-2-pyrimidinamine] has a pIC50 (GST-DYRK1B; [2]) of 4.99.
For `NCCCCCNc1nccc(-c2cnn(-c3ccccc3F)c2)n1` [N-{4-[1-(2-fluorophenyl)-1H-pyrazol-4-yl]pyrimidin-2-yl}pentane-1,5-diamine], the pIC50 (GST-DYRK1B; [2]) was 5.40.
With `Fc1ccccc1-n1cc(-c2ccnc(NCC(F)F)n2)cn1` [N-(2,2-difluoroethyl)-4-[1-(2-fluorophenyl)-1H-pyrazol-4-yl]pyrimidin-2-amine] the pIC50 (GST-DYRK1B; [2]) was 5.16.
With `Fc1ccccc1-n1cc(-c2ccnc(NC3CCOCC3)n2)cn1` [compound of formula 12] the pIC50 (GST-DYRK1B; [3]) was 5.70.
In the case of `Fc1ccccc1-n1cc(-c2ccnc(NCc3ccncc3)n2)cn1` [compound of formula 10, 4-(1-(2-fluorophenyl)-1H-pyrazole-4-yl)-N-(pyridine-4-ylmethyl)pyrimidine-2-amine], the pIC50 (GST-DYRK1B; [3]) was 5.40, the “inhibition of phosphorylation of p27 at serine 10 in cells” value (HT29 cells) was “inhibited the phosphorylation of DYRK1B substrate p27 at serine 10” and the “activity against hypoxic cancer cells” value [1] was “high activity”. For the same molecule, the “inhibition of phosphorylation of DYRK1B substrate p27 at serine 10” value (DYRK1B) was “inhibited the phosphorylation of DYRK1B substrate p27 at serine 10”.
`NCCCCCNc1nccc(-c2cnn(-c3ccc(F)cc3)c2)n1` [N-{4-[1-(4-fluorophenyl)-1H-pyrazol-4-yl]pyrimidin-2-yl}pentane-1,5-diamine, reference compound] gave a pIC50 (GST-DYRK1B; [2]) of 4.81.
`Cc1cccnc1CNc1nccc(-c2cnn(-c3ccccc3F)c2)n1` [4-[1-(2-fluorophenyl)-1H-pyrazol-4-yl]-N-[(3-methyl-2-pyridinyl)methyl]-2-pyrimidinamine] was tested, and the pIC50 (GST-DYRK1B; [2]) was 5.45.
Molecule `OCCCCCNc1nccc(-c2cnn(-c3ccccc3F)c2)n1` [5-({4-[1-(2-fluorophenyl)-1H-pyrazol-4-yl]pyrimidin-2-yl}amino)pentan-1-ol] has a pIC50 (GST-DYRK1B; [2]) of 5.70.
`CC(Cc1ccncc1)Nc1nccc(-c2cnn(-c3ccccc3F)c2)n1` (centres unmarked) [compound of formula 16] showed a pIC50 (GST-DYRK1B; [3]) of 5.70.
Work on `CCNc1nccc(-c2cnn(-c3ccccc3F)c2)n1` [compound of formula 14] yielded a pIC50 (GST-DYRK1B; [3]) of 5.52.
Work on `COc1ccccc1-n1cc(-c2ccnc(NCc3c(C)n[nH]c3C)n2)cn1` [compound of formula 19] yielded a pIC50 (GST-DYRK1B; [3]) of 5.52.
